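Five concentrations, 48 hours, 96-well plates. The concentration for 50% growth inhibition is given as GI50.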 The source made the active and inactive calls. Rule as the data show it: active = GI50 up to about 1.1 µM and inactive = higher.

Among the test systems are SK-OV-3; CCRF-CEM; M14; SF-539; LOX IMVI; HCT-15; IGROV-1; SW-620; NCI-H226; K562; OVCAR-8; SN12C; HOP-62; MDA-MB-435; HL-60; RXF 393; A498; HCC 2998; 786-0.
What all share (test): NCI tumour cell line growth inhibition, 48 h

Turning to `O=C1Nc2ccc(Br)cc2/C1=N/Nc1ccccc1[N+](=O)[O-]`, the GI50 is 24 µM (inactive) with SK-OV-3; 12.5 µM (inactive) in the test on CCRF-CEM; 13.9 µM (inactive) with M14; > 100 µM (inactive) with SF-539; 15.2 µM (inactive) in the test with LOX IMVI; 20.5 µM in the test with HCT-15. Besides, the GI50 in the test on IGROV-1 was 0.261 µM (active); with SW-620, 25 µM (inactive); in the test with NCI-H226 it was 13.6 µM (inactive); in the test on K562 it was 16.6 µM (inactive); with OVCAR-8, 17.2 µM (inactive); in the test on SN12C, 18.8 µM (inactive). For the same compound, the GI50 in the test on HOP-62 was 11.4 µM (inactive); with MDA-MB-435, 21.1 µM (inactive); in the test with HL-60 it was 33.2 µM (inactive); with RXF 393 it was 32.7 µM (inactive); with A498, 28 µM (inactive); with HCC 2998, 13 µM (inactive). In addition, in the test with 786-0, the GI50 is 24.6 µM (inactive).
`CC(=O)c1c2c(cc3c1CC1(C3)Cc3ccc4c(c3C1=O)CCC4)CCC2` (stereo not given): the GI50 with SK-OV-3 was > 100 µM (inactive); in the test on CCRF-CEM it was 19.3 µM (inactive); in the test on M14, 43 µM (inactive); in the test with SF-539, > 100 µM (inactive); with LOX IMVI it was 14.8 µM (inactive); in the test on HCT-15 it was 16.1 µM. Moreover, the GI50 is 87.3 µM (inactive) in the test on IGROV-1; 32.7 µM (inactive) in the test with SW-620; > 100 µM (inactive) with NCI-H226; 6.58 µM (inactive) in the test with K562; 75.3 µM (inactive) with OVCAR-8; 48.2 µM (inactive) in the test on SN12C. Moreover, the GI50 was > 100 µM (inactive) with HOP-62; 8.05 µM (inactive) in the test with MDA-MB-435; 3.58 µM (inactive) in the test with HL-60; 9.64 µM (inactive) with RXF 393; > 100 µM (inactive) in the test on A498; 29.2 µM (inactive) with HCC 2998. In the test with 786-0, the GI50 is > 100 µM (inactive).
In the case of `O=C(NC(Cl)(C(F)(F)F)C(F)(F)F)c1ccc(F)cc1`, the GI50 was > 100 µM (inactive) in the test with SK-OV-3; > 100 µM (inactive) in the test with CCRF-CEM; > 100 µM (inactive) in the test with M14; > 100 µM (inactive) in the test with SF-539; > 100 µM (inactive) with LOX IMVI; more than 100 µM in the test on HCT-15. Besides, the GI50 in the test with IGROV-1, with SW-620, with NCI-H226, in the test with K562, in the test on OVCAR-8 and with SN12C was > 100 µM (inactive) throughout. For the same compound, the GI50 with HOP-62, in the test on MDA-MB-435, in the test with HL-60, in the test with RXF 393, in the test on A498 and in the test with HCC 2998 was > 100 µM (inactive) in each case. Also, the GI50 in the test on 786-0 is > 100 µM (inactive).
Consider `CC(=O)O[C@H]1[C@H](OC(C)=O)[C@@H](CN=[N+]=[N-])OCO[C@@H]1CN=[N+]=[N-]`, for which the GI50 with SK-OV-3 was > 100 µM (inactive); with CCRF-CEM it was > 100 µM (inactive); in the test on M14 it was > 100 µM (inactive); with SF-539, > 100 µM (inactive); in the test with LOX IMVI, > 100 µM (inactive); in the test on HCT-15, more than 100 µM. Further, the GI50 in the test with IGROV-1, with SW-620, with NCI-H226, in the test with K562, in the test on OVCAR-8 and in the test on SN12C was > 100 µM (inactive) each time. Moreover, the GI50 in the test on HOP-62, in the test on MDA-MB-435, with HL-60, in the test on RXF 393, in the test on A498 and with HCC 2998 was > 100 µM (inactive) each time. Besides, the GI50 in the test with 786-0 is > 100 µM (inactive).
Turning to `COc1ccc(/N=C2\C(=N/c3ccc(OC)cc3)N(c3ccc(N(C)C)cc3)C(=S)N2c2ccc(OC)cc2)cc1`, the GI50 was > 100 µM (inactive) in the test on SK-OV-3; > 100 µM (inactive) in the test on CCRF-CEM; > 100 µM (inactive) with M14; 0.184 µM (active) in the test on SF-539; > 100 µM (inactive) with LOX IMVI; more than 100 µM in the test on HCT-15. Besides, the GI50 in the test on IGROV-1 is > 100 µM (inactive); in the test on SW-620, > 100 µM (inactive); with NCI-H226, > 100 µM (inactive); in the test on K562 it was > 100 µM (inactive); with OVCAR-8, > 37.2 µM (inactive); in the test on SN12C, > 100 µM (inactive). Also, the GI50 with HOP-62 was > 64.6 µM (inactive); with MDA-MB-435 it was > 100 µM (inactive); in the test on HL-60, > 100 µM (inactive); in the test with RXF 393, 0.0378 µM (active); with A498, > 100 µM (inactive); in the test on HCC 2998, > 100 µM (inactive). In addition, in the test on 786-0, the GI50 is 0.767 µM (active).
`CCOC(=O)/C=C(/C(=O)OCC)n1cc(C)c(=O)n(/C(=C/C(=O)OCC)C(=O)OCC)c1=O`: the GI50 is 17.5 µM (inactive) in the test with SK-OV-3; 0.354 µM (active) in the test with CCRF-CEM; 2.31 µM (inactive) with M14; 8.85 µM (inactive) with SF-539; 1.74 µM (inactive) with LOX IMVI; 1.56 µM in the test on HCT-15. Further, the GI50 with IGROV-1 was 4.75 µM (inactive); with SW-620, 1.22 µM (inactive); with NCI-H226, 6.01 µM (inactive); in the test with K562 it was 1.58 µM (inactive); in the test on OVCAR-8 it was 5.35 µM (inactive); in the test with SN12C, 2.98 µM (inactive). Besides, the GI50 in the test on HOP-62 is 24.8 µM (inactive); with MDA-MB-435 it was 2.5 µM (inactive); in the test on HL-60, 0.255 µM (active); in the test with RXF 393, 1.8 µM (inactive); with A498, 19.8 µM (inactive); in the test on HCC 2998, 9.48 µM (inactive). The GI50 with 786-0 is 1.28 µM (inactive).
Regarding `CCOC(=O)C1=CN(Cc2ccccc2)C2ON=C(c3ccc(Cl)cc3)C2C1` (stereo not given), the GI50 in the test on SK-OV-3 was > 63.7 µM (inactive); in the test on CCRF-CEM it was 9.1 µM (inactive); with M14 it was > 54.7 µM (inactive); in the test on SF-539, > 55 µM (inactive); with LOX IMVI, > 57.5 µM (inactive); with HCT-15, more than 32.4 µM. Further, the GI50 in the test on IGROV-1 is 29.5 µM (inactive); in the test on SW-620 it was > 52.5 µM (inactive); in the test with NCI-H226, > 56.2 µM (inactive); with K562, 5 µM (inactive); in the test with OVCAR-8, > 54 µM (inactive); with SN12C, > 52 µM (inactive). Also, the GI50 in the test on HOP-62 is > 55.5 µM (inactive); with MDA-MB-435, 29 µM (inactive); with HL-60, 23.4 µM (inactive); with RXF 393 it was 38.6 µM (inactive); in the test with A498, > 42.6 µM (inactive); in the test with HCC 2998, > 100 µM (inactive). Moreover, the GI50 with 786-0 is 54.7 µM (inactive).
For the compound `CC[C@]12C=CCN3CC[C@@]4(c5cc(Br)c(OC)cc5N(C)[C@H]4[C@@](O)(C(=O)NN)[C@@H]1O)[C@@H]32`, the GI50 in the test on SK-OV-3 was 75.7 µM (inactive); with CCRF-CEM, 38 µM (inactive); with M14, 55.5 µM (inactive); with SF-539, 30.5 µM (inactive); with LOX IMVI, 65.6 µM (inactive); in the test with HCT-15 it was more than 100 µM. Besides, the GI50 is 87.1 µM (inactive) in the test with IGROV-1; > 100 µM (inactive) in the test with SW-620; 43 µM (inactive) in the test with NCI-H226; 48.2 µM (inactive) in the test with K562; 46.9 µM (inactive) with OVCAR-8; 76.9 µM (inactive) with SN12C. Also, the GI50 in the test on HOP-62 was > 100 µM (inactive); in the test with MDA-MB-435, 93.5 µM (inactive); in the test with HL-60, 37.9 µM (inactive); in the test with RXF 393, 22.5 µM (inactive); with A498, 36.8 µM (inactive); in the test with HCC 2998 it was > 100 µM (inactive). Besides, the GI50 with 786-0 was 57.5 µM (inactive).
In the case of `CC[C@@]1(O)C(=O)OCc2c1cc1n(c2=O)Cc2c-1nc1ccccc1c2/C=N/NC(=O)C[N+](C)(C)C`, the GI50 in the test with SK-OV-3 is 2.1 µM (inactive); in the test with CCRF-CEM, 0.123 µM (active); in the test on M14 it was 1 µM (active); in the test with SF-539, 0.386 µM (active); in the test with LOX IMVI, 0.824 µM (active); with HCT-15, 14 µM. Also, the GI50 in the test with IGROV-1 is 38.8 µM (inactive); in the test on SW-620 it was 4.99 µM (inactive); in the test with NCI-H226 it was 0.802 µM (active); in the test with K562, 2.86 µM (inactive); in the test on OVCAR-8, 1.98 µM (inactive); with SN12C, 0.0857 µM (active). For the same compound, the GI50 in the test with HOP-62 was 0.359 µM (active); with MDA-MB-435 it was 16.1 µM (inactive); with HL-60, 0.668 µM (active); in the test with RXF 393, 0.697 µM (active); with A498 it was 7.76 µM (inactive); with HCC 2998, 4.59 µM (inactive). For the same compound, the GI50 in the test on 786-0 was 0.662 µM (active).
On to `C[C@]12CC[C@H]3[C@@H](CC=C4C[C@@H](O)CC[C@@]43C)[C@@H]1C[C@H](N1CCOCC1)[C@@H]2O`, for which the GI50 with SK-OV-3 is > 100 µM (inactive); in the test with CCRF-CEM it was > 100 µM (inactive); with M14 it was > 100 µM (inactive); with SF-539 it was 40 µM (inactive); in the test with LOX IMVI it was > 100 µM (inactive); with HCT-15, more than 100 µM. Besides, the GI50 was > 100 µM (inactive) in the test with IGROV-1; > 100 µM (inactive) with SW-620; > 100 µM (inactive) in the test with NCI-H226; 68.4 µM (inactive) in the test with K562; > 100 µM (inactive) in the test with OVCAR-8; > 100 µM (inactive) in the test on SN12C. Further, the GI50 was > 100 µM (inactive) in the test with HOP-62; > 100 µM (inactive) with MDA-MB-435; 48.5 µM (inactive) in the test on HL-60; 52.4 µM (inactive) in the test with RXF 393; 89.3 µM (inactive) in the test on A498; > 100 µM (inactive) with HCC 2998. In addition, the GI50 in the test with 786-0 is 81.5 µM (inactive).
